Results on one compound are retold here after patent publication US11980596B2 (priority 2017, dated 2024).

Data set [1] has as its system subjects with MDD at imminent risk for suicide. The format is in vivo, human. As to conditions: post dose. The procedure: Transient blood pressure increases peaked for the esketamine group at approximately 40 minutes post dose with the maximum mean increases (across all dosing days) in systolic BP being 8.7 in the placebo group and 16.7 in the esketamine 84 mg group. The maximum mean increases (across all dosing days) in diastolic BP were 7.6 in the placebo group and 11.9 in the esketamine 84 mg group. […] See, FIGS. 46 and 47.

The conditions of data set [2]: single dose; 72 mg. The procedure: This study includes a single dose and 14-day repeated dose neurotoxicity studies with intranasally administered esketamine in female rats 12 to 14 weeks of age. These studies were conducted to investigate whether single or repeated intranasal administrations of esketamine induced neurodegenerative changes in the rat brain. The study results were used to estimate an esketamine exposure-based safety margin compared with the maximum dose of esketamine administered intranasally to depressed adult patients in clinical trials.
The vehicle- and the 36 and 54 mg-dosed groups consisted of 24 animals per group, while the 72 mg-dosed and positive control groups involved 30 animals per group. Four satellite animals were added to the esketamine HCl-dosed groups of main study animals for toxicokinetic (TK) purposes. In these animals the plasma exposure to esketamine was measured on the day of dosing at various time points up to and including 24 hours after the first instillation.

The test system of data set [3] is patients with treatment-resistant depression (TRD). Briefly: GAD-7 (Example 7). It is filed as in vivo, human. The procedure:
Overall illness severity was assessed on the Clinical Global Impression of Severity (CGI-S) scale (Guy, “ECDEU Assessment Manual for Psychopharmacology—Revised (DHEW Publ No ADM 76-338)”, Rockville, Md.: U.S. Department of Health, Education, and Welfare, Public Health Service, Alcohol, Drug Abuse, and Mental Health Administration, NIMH Psychopharmacology Research Branch, Division of Extramural Research Programs; 1976, pp 218-222). Participants assessed their severity of anxiety on the Generalized Anxiety Disorder 7-item (GADS-7) Scale (See, Tables 157 and 158). See, Spitzer, “A brief measure for assessing generalized anxiety disorder—the GAD-7”, Arch. Intern. Med., 2006, 166(10): 1092-1097.

Data set [4] can be described thus: Pharmacokinetics of esketamine nasal spray, 14 Phase 1 studies (Example 10). The note with it: young adult subjects. The procedure:
The data herein was assembled from 14 Phase 1 studies; each Phase 1 study was performed similarly to the study outlined in Example 9 in which the PK of esketamine was assessed.

The test system of a further data set is glutamate NMDA receptor. As to conditions: cited from earlier work.
In data set [5] the test system is CYP2B6 and CYP3A4 and to a lesser extent CYP2C9 and CYP2C19. Kind of data set: Metabolism by cytochrome P450 enzymes. The note with it: human.
The next data set concerns adult female rats. Kind of data set: Second single dose neurotoxicity study (neuronal necrosis), intranasal esketamine (label). As to conditions: 200-gram rat.

As to `CN[C@]1(c2ccccc2Cl)CCCCC1=O` [esketamine, (S)-2-(2-chlorophenyl)-2-(methylamino)cyclohexanone], the “Blood pressure returning to normal range by” value in data set [1] is not above 2 h. The “AUC-based safety margin compared with the maximum 84 mg clinical dose” value in data set [2] was approximately 86 fold. Further, the “Cmax-based safety margin compared with the maximum 84 mg clinical dose” value in data set [2] was “approximately 60 fold”. For the same compound, the “GAD-7 change from baseline, LS mean (SE)” value is on record as −1.5 (1.34) in data set [3] (Period 1, esketamine 28 mg intranasal); −3.1 (1.34) in data set [3] (Period 1, esketamine 56 mg intranasal); −5.1 (1.30) in data set [3] (Period 1, esketamine 84 mg intranasal); −1.6 (0.87) in data set [3] (Period 2, esketamine 28 mg intranasal); 1.0 (0.98) in data set [3] (Period 2, esketamine 56 mg intranasal); −0.9 (1.02) in data set [3] (Period 2, esketamine 84 mg intranasal). The “Tmax, range of median values” in data set [4] (single dose esketamine nasal spray 28 mg, n = 64) lay within 19.8 to 40.2 min; in data set [4] (single dose esketamine nasal spray 56 mg, n = 86), 30 to 46.2 min; in data set [4] (single dose esketamine nasal spray 84 mg, n = 167), 31.8 to 49.8 min. The “Affinity for the glutamate NMDA receptor in vitro, fold greater than R-ketamine” value in the data set on glutamate NMDA receptor is given as 3 to 4 fold. The Metabolic pathway result in data set [5] is “primarily metabolized to noresketamine metabolite via cytochrome P450 (CYP) enzymes CYP2B6 and CYP3A4”. The “Highest dose equivalent with no findings of neuronal necrosis” value in the data set with adult female rats came out at 270 mg/kg.
